# In US12534533B2, “Anti-chemokine like receptor 1 humanized antibodies and their therapeutic applications” (OSE IMMUNOTHERAPEUTICS, priority 2019, dated 2026):
# Assays:
# [1] = test system: peritonitis induced by Zymosan A; assay: peritonitis model (Zymosan A); type: in vivo, mice; details: vs isotype control
# Protocol: FIG. 7. Effect of an anti-CMKLR1 antibody on a mice peritonitis model. Preventive injection of anti-CMKLR1 was performed before Zymosan A injection (1 mg per mouse in 1 mL): RvE1 (1 μg per mouse) (●), 2G1 antibody (10 μg per mouse) (□) or isotype control antibody (x). A. PMN numbered during the first 50 hours after Zymosan A injection. B. Macrophages numbered during the first 50 hours after Zymosan A injection. C. Resolution index.
# Common peritonitis is induced by intraperitoneal injection of Zymosan A® (1 mg per mouse in 1 mL). Preventive injection of anti-CMKLR1 was performed 5 minutes before Zymosan A injection: RvE1 (1 μg per mouse), 2G1 antibody (10 μg per mouse). Murine peritoneal polymorphonuclear neutrophil (PMN) and macrophages were collected at 2-4-8-16-24 and 48 h after Zymosan A injection and numbered by flow cytometry analysis to determinate the resolution index (Bannenberg et al., 2005).
# Mice dendritic cells = assay: DCs maturation and differentiation, activation markers by FACS; type: cell-based; details: compared to the excipient or isotype control; FIG. 16
# Protocol: FIG. 1. Effect of the anti-CMKLR1 variants 1G1, 2G1, 3G1 and 4G1 chimeric antibodies on the DCs maturation and differentiation. Mice dendritic cells were incubated during maturation phase (24 h or 48 h) followed by a differentiation phase with excipient or RvE1 or anti-CMKLR1 antibodies variants (mutations on positions 1 and 2 of SEQ ID No. 8, corresponding to the VH-CDR3: 1G1 (LL), 2G1 (LI), 3G1 (IL) or 4G1 (II) or isotype controls (hIgG1 or mIgG)). Cells were then stained for FACS analysis with cell marker antibodies: A. CD80-PE; B. CD86-FITC; C. CD103-PerCPCy5.5; D. I/Ab-APC. Mean of Fluorescence was determined in each condition. E and F represent the viability of the cells measured by FACS using LIVE/DEAD® kit from Life Technologies in each condition after 24 or 48 hours of maturation respectively.
# FIG. 16. Study of the myeloid cell activation markers after CMKLR1 pathway activation. Dendritic cells incubated in excipient, RvE1, 2G1 or isotype control (hIgG1) were then stained for FACS analysis with marker antibodies: A. CD80-PE. B. CD86-FITC. C. CD103-PerCPCy5.5. D. CD40-PeCy7. E. I/Ab-APC. Mean of Fluorescence was determined in each condition.
# Bone marrow cells were harvested and cultured in RPMI medium supplemented with 10% FBS, glutamine and antibiotics and the dendritic cell differentiation was induced by GM-CSF at 20 ng/ml for 7 days. Then, immature dendritic cells (iDC) were collected and cultured for 24 hours with LPS (100 ng/ml) to induce the maturation from iDC to mDC. Treatments were added during differentiation and maturation at 2 μg/ml.
# Dendritic cells were resuspended in PBS-FBS-EDTA and incubated with live and dead (LIVE/DEAD® Fixable Dead Cell Stains Yellow-Life Technologies) for 30 minutes on ice. Staining of CD11c-BV711, CD11b-APCCy7, I/Ab-APC, CD103-PerCPCy5.5, CCR7-V450, CD40-PeCy7, CD80-PE, CD86-FITC (all provided by BD Pharmingen) were performed.
# colitis induced by TNBS = assay: acute inflammatory colitis model induced by TNBS; type: in vivo, mice; details: RvE1 1 μg per mouse daily, 2G1 10 μg per mouse; FIG. 3
# Protocol: FIG. 3. Effect of an anti-CMKLR1 antibody on a mice acute inflammatory colitis model induced by TNBS. Mice received 200 μL of the haptenating agent TNBS at 5% in 50% ethanol on day 0 and then were injected with isotype control hIgG1 (10 μg per mouse) (x), RvE1 (1 μg per mouse) daily (●), or 2G1 antibody (10 μg per mouse) three times (□) for 5 days, or non-treated (wild type animals) (▴). Mice were sacrificed colon length was measured in each condition.
# Colitis was induced in 8-10 weeks-old-C57Bl/6 male mice by intrarectal injection of 200 μL of the haptenating agent TNBS at 5% in 50% ethanol on day 0. Treatments were injected intra-peritoneally; RvE1 (1 μg per mouse) daily for three days, or 2G1 antibody (10 μg per mouse) twice for 3 days. Colitis follow-up consisting of body weight and stool score (0: normal stool; 4: blood in stool) parameters were performed daily (data not represented). When mice are euthanized, colon length representing the pathology severity was measured.
# [2] = biological target: T1, Biot-C7 peptide (human ChemR23 peptide, SEQ ID No. 60) (Homo sapiens, UniProt Q99788); assay: activity ELISA assay, binding of biotinylated C7 peptide; details: compared to wild-type 2G1; FIG. 23, FIG. 33
# T1 construct: purchased synpeptide; host or cells: chemical synthesis
# T1 sequence (Q99788 275-307 limits assumed): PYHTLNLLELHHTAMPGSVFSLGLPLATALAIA
# Excerpt: FIG. 23. Binding recognition of C7 peptide by humanized anti-CMKLR1 derived from 2G1. Binding of C7biot in the supernatant of CHO cells transfected with different combinations of heavy and light chains (VHWT+VLWT: combination of SEQ ID No. 37 and SEQ ID No. 49; HCLC: combination of SEQ ID No. 42 and SEQ ID No.52; HDLC: combination of SEQ ID No. 43 and SEQ ID No.52; HCLD: combination of SEQ ID No. 42 and SEQ ID No.53; HDLD: combination of SEQ ID No. 43 and SEQ ID No.53).
# FIG. 24. ED50 of anti-CMKLR1 derived from 2G1 antibody. 2G1 wt: HALA: combination of SEQ ID No. 41 and SEQ ID No. 50; combination of SEQ ID No. 37 and SEQ ID No. 49; HCLC: combination of SEQ ID No. 42 and SEQ ID No.52; HDLC: combination of SEQ ID No. 43 and SEQ ID No.52; HCLD: combination of SEQ ID No. 42 and SEQ ID No.53; HDLD: combination of SEQ ID No. 43 and SEQ ID No.53.
# FIG. 33—Binding of purified antibodies on human ChemR23 peptide by ELISA assay (A), with ED50 concentration (ng/ml) (B). For activity ELISA assay, donkey anti-human IgG, Fc specific (Jackson Immunoresearch; USA; reference 709-005-098) was immobilized on plastic at 1.3 μg/ml in borate buffer (pH9) and purified antibody was added to measure binding in BSA1% buffer, compared to wild-type 2G1.
# For activity ELISA assay, donkey anti-human IgG, Fc specific (Jackson Immunoresearch; USA; reference 709-005-098) was immobilized on plastic at 1.3 μg/ml in borate buffer (pH9) and purified antibody were added to measure binding in BSA1% buffer, compared to wild-type 2G1.
# For activity ELISA assay, donkey anti-human IgG, Fc specific (Jackson Immunoresearch; USA; reference 709-005-098) was immobilized on plastic at 1.3 μg/ml in borate buffer (pH9) and purified antibody was added to measure binding in BSA1% buffer, compared to wild-type 2G1.
# [3] = test system: PMN from healthy volunteers; assay: Percentage of dead PMN (mortality of neutrophils) on coated antibodies; type: cell-based, human; details: coated Ab at 10 μg/mL, 24 h; FIG. 26, FIG. 36
# Protocol: […] Mortality of PMN was analyzed by incubating PMN with specific markers of the mortality and viability and then counted by picture analysis.
# (§1) FIG. 36—Increase of dead PMN neutrophils in vitro with anti-ChemR23 antibodies coated. PMN from healthy volunteers were incubated in culture medium with coated HEF-LDT52S, HEF-LEF and HDLD antibody variants at 10 μg/mL for 24 h and stained either with a dead/viability kit (LIVE/DEAD (Invitrogen)). The percentages of positive cells were obtained by analyzing the pictures with Fiji software. Isotype control was added as control.
# PMN from healthy volunteers were incubated in culture medium with coated Ab at 10 μg/mL for 24 h or 5 h and stained either with a dead/viability kit (LIVE/DEAD (Invitrogen)) or a specific marker of reactive oxygen species (ROS) respectively. The percentages of positive cells were obtained by analyzing the pictures with ImageJ software.
# as §1, with “PMN” for “FIG. 36—Increase of dead PMN neutrophils in vitro with anti-ChemR23 antibodies coated. PMN”
molecule,measurement,setting,value
"CC[C@@H](O)/C=C/C=C\C[C@@H](O)/C=C/C=C/C=C\[C@@H](O)CCCC(=O)O [RvE1, Resolvin E1, reference compound]",PMNs number,"[1]; first 50 hours after Zymosan A, FIG. 7A",slightly less
same,Macrophages number,"[1]; first 50 hours after Zymosan A, FIG. 7B",slightly less
same,resolution index,[1]; FIG. 7C,better resolution index
same,"expression of CD80, CD86, CD103, CD40 and IAb",Mice dendritic cells,strong decrease
same,colon length,colitis induced by TNBS,the same as normal animal
"HCLC: humanized 2G1 variant: combination of SEQ ID No. 42 and SEQ ID No. 52 (antibody, V domains shown) VH: EVQLVESGGGLVQPGGSLRLSCAASGFTFSSYGMSWVRQAPGKGLELVATINRYGGSTYYAASVKGRFTISRDNSKNTLYLQMNSLRAEDTAVYYCPKLIYYGNEGDSWGQGTLVTVSS VL: AIQLTQSPSSLSASVGDRVTITCRASQSVSFLHWYQQKPGKAPKRWIYDATKLTSGVPSRFSGSGSGTDFTLTISSLQPEDFATYYCQQWNSKPPLTFGGGTKVEIK",binding activity to antigen-specific peptides (C7 peptide),[2],even better than the germline antibody HALA and the wild type antibody 2G1
"HDLC: humanized 2G1 variant: combination of SEQ ID No. 43 and SEQ ID No. 52 (antibody, V domains shown) VH: EVQLVESGGGLVQPGGSLRLSCAASGFTFSSYAMSWVRQAPGKGLELVATINRYGGSTYYAASVKGRFTISRDNSKNTLYLQMNSLRAEDTAVYYCPKLIYYGNEGDSWGQGTLVTVSS VL: AIQLTQSPSSLSASVGDRVTITCRASQSVSFLHWYQQKPGKAPKRWIYDATKLTSGVPSRFSGSGSGTDFTLTISSLQPEDFATYYCQQWNSKPPLTFGGGTKVEIK",binding activity to antigen-specific peptides (C7 peptide),[2],even better than the germline antibody HALA and the wild type antibody 2G1
"HCLD: humanized 2G1 variant: combination of SEQ ID No. 42 and SEQ ID No. 53 (antibody, V domains shown) VH: EVQLVESGGGLVQPGGSLRLSCAASGFTFSSYGMSWVRQAPGKGLELVATINRYGGSTYYAASVKGRFTISRDNSKNTLYLQMNSLRAEDTAVYYCPKLIYYGNEGDSWGQGTLVTVSS VL: AIQLTQSPSSLSASVGDRVTITCRASQSVSFLHWYQQKPGKAPKRWIYDATKLTSGVPSRFSGSGSGTDFTLTISSLQPEDFATYYCQQWQSKPPLTFGGGTKVEIK",binding activity to antigen-specific peptides (C7 peptide),[2],even better than the germline antibody HALA and the wild type antibody 2G1
"HEF-LEF: humanized 2G1 variant: HEF (SEQ ID NO: 91) with LEF (SEQ ID NO: 55) (antibody, V domains shown) VH: EVQLVESGGGLVQPGGSLRLSCAASGFTFSSYAMSWVRQAPGKGLELVSTISGSGGSTYYAASVKGRFTISRDNSKNTLYLQMNSLRAEDTAVYYCPKLIYYGNEGDSWGQGTLVTVSS VL: AIQLTQSPSSLSASVGDRVTITCRASQSVSFLHWYQQKPGKAPKRLIYDASKLESGVPSRFSGSGSGTDFTLTISSLQPEDFATYYCQQWQSKPPLTFGGGTKVEIK",mortality of PMN (percentage of dead PMN),[3],accelerate the death of PMN
